From PMC11794677, “Self‐Assembly of a Conjugate of Lipoic Acid With a Collagen‐Stimulating Pentapeptide Showing Cytocompatibility and Wound Healing Properties, and Chemical and Photolytic Disassembly” (Journal of Peptide Science, 2025)

Key:
[1] = tested on: HDFa cells; experiment: Scratch assay of in vitro wound healing; format: cell-based, Human; conditions: 0.0062 wt% in DMEM without serum
Experimental: For the scratch assay, 5 × 10^4 cells into were seeded into 24‐well plates, and cells were allowed to reach confluence. After reaching 90% confluence, a scratch was made in the middle of the well using a 200‐μL pipette tip and cells were incubated at 37°C in an atmosphere 5% CO2. The media used was DMEM without serum for the controls or DMEM without serum + lipoyl‐KTTKS at different concentrations. Pictures were taken periodically using a standard inverted optical microscope with phase contrast filters to monitor cell migration and wound closure.
As a simple in vitro ‘wound healing’ model, scratch assays were performed by creating a scratch in a layer of cells. Images of the confluent cell layer are presented in SI Figure S5. The scratch assay is a simple and affordable procedure consisting of simulating the closure of a skin wound by scratching a monolayer of fibroblasts seeded at high confluence and monitoring how long it takes for the cells to migrate and recover the ‘wound’ [51, 52, 53]. As evident from the images in Figure S5, the recovery of cells incubated with 0.0062 wt% lipoyl‐KTTKS was enhanced, with complete closure of the scratch after 48 h.

[2] = SAXS form factor fits (core-shell cylinder, generalized Gaussian coil); format: physicochemical; also: values in Å
Experimental: SAXS experiments were performed on beamline B21 [28] at Diamond (Didcot, UK). The sample solution was loaded into the 96‐well plate of an EMBL BioSAXS robot and then injected via an automated sample exchanger into a quartz capillary (1.8‐mm internal diameter) in the X‐ray beam. The quartz capillary was enclosed in a vacuum chamber, to avoid parasitic scattering. After the sample was injected into the capillary and reached the X‐ray beam, the flow was stopped during the SAXS data acquisition. Beamline B21 was operated with a fixed camera length (3.9 m) and fixed energy (12.4 keV). The images were captured using a PILATUS 2M detector. Data processing was performed using dedicated beamline software ScÅtter.
Cryo‐TEM was used to probe potential aggregation in solution above the CAC (3 wt% aqueous solution). […] The presence of such structures was also confirmed by SAXS and SANS data (Figure 3), which reveal form factor features that can be fitted using a core‐shell cylinder form factor, consistent with extended fibril structures. The cylinder radius is 25 Å, which is approximately equal to the estimated length of the molecule considering the lipid chain plus a pentapeptide in a β‐sheet conformation. […] For the SAXS data, it was necessary to include a contribution in the fits from unaggregated peptide, which gives rise to scattering at high q, described using a generalized Gaussian coil form factor (generalized refers to allowing the Flory exponent for the coil to vary from the value ν = 0.5 for an unperturbed coil). SANS data for 3 wt% solutions of lipoyl‐KTTKS in D2O can be fitted to a core‐shell cylinder form factor, consistent with SAXS, with fit parameters listed in Table S1. It was not necessary to allow for unaggregated monomer in fitting the SANS data, which may be because of the higher background and/or altered scattering contrast compared with SAXS. The cylinder radius and shell thickness obtained from the fits to the SANS data are in excellent agreement with the parameters obtained from the SAXS fit.
(§1) The ring‐opening of the lipoyl moiety can be achieved under reductive conditions. We examined the effect of chemical reduction on the self‐assembled structures of lipoyl‐KTTKS using TCEP [tris(2‐carboxyethyl)phosphine] as reductant. […] The SAXS data in Figure 3a show a considerable reduction in scattering intensity after addition of TCEP and the SANS profile in Figure 3b is barely above background after addition of TCEP. The SAXS data can be described using a form factor for monomer scattering with a power‐law intensity function at low q to account for a small fraction of irregular aggregates. The disruption of the fibrils upon TCEP addition was also confirmed by cryo‐TEM (images shown in Figure S1) because no aggregate structures were observed after addition of TCEP. Circular dichroism (CD) spectra shown in Figure 4 are characterized by a negative minimum in the CD spectrum at 196 nm along with the absence of defined features at higher wavelength, characteristic of a primarily disordered conformation. However, taking the difference between the CD spectra for lipoyl‐KTTKS without and with TCEP produces a spectrum (green spectrum in Figure 5) with a minimum near 215 nm, characteristic of β‐sheet structure. This is consistent with the observation that lipoyl‐KTTKS forms fibril‐like structures above a CAC detected by ThT binding to β‐sheet structure and as observed by cryo‐TEM, SAXS and SANS.
Table S1. SANS and SAXS data fitted parameters. Data fitted using SASfit,^[1-2] using a long cylindrical shell form factor model, with allowance for monomers via a Generalized Gaussian coil factor for SAXS data. […]

[3] = tested on: RAW 264.7 cells; experiment: Nitrite (inflammation) assay with Griess reagent; format: cell-based; conditions: 2 μg LPS, 24 h, different concentrations, absorbance 550 nm, ANOVA with Bonferroni correction
Experimental: To detect nitrite, the Griess reagent assay was used, following protocols described previously. Amounts 5 × 10^3 RAW 264.7 cells were seeded in a 96‐well plate and incubated for 24 h inside the cell incubator. After 24 h, the cells were washed three times with PBS and incubated in 100 μL of DMEM + 2 μg of LPS (lipopolysaccharide) for 24 h. After incubation in the presence of LPS, 100 μL of Griess reagent solution was added to each well and incubated for 10 min at room temperature. The resulting absorbance was measured at 550 nm using an Infinite F50 microplate reader (TECAN, Switzerland).
The Griess reagent assay was used as an indirect measure of the production of nitrite ions, an important species related to inflammation, by monitoring the presence of nitrites in media via colorimetric (UV‐vis absorbance) measurements. The assay was performed by incubating the cells in DMEM containing 2 μg of LPS with different concentrations of lipoyl‐KTTKS. Controls containing only LPS and RAW cells incubated in DMEM without LPS were also prepared.

[4] = tested on: procollagen type I carboxy-terminal peptide (PIP); conditions: cited from earlier work
Source text: Here, we investigate the structural properties, biocompatibility and collagen‐stimulating activity of a novel peptide amphiphile comprising a conjugate of lipoic acid to pentapeptide KTTKS, termed lipoyl‐KTTKS (Scheme 1). […] This can be contrasted with previous reported data f ...

[5] = Chemical reduction with TCEP, effect on self-assembled structures; format: physicochemical; conditions: 3 wt% with 2.6 wt% TCEP, SAXS and SANS; cryo-TEM 1 wt% + 0.37 wt% TCEP
Source text: as §1, with “However, taking the difference between the CD spectra for lipoyl‐KTTKS without and with TCEP produces a spectrum (green spectrum in Figure 5) with a minimum near 215 nm, characteristic of β‐sheet structure.” left out, “SANS. […]” for “SANS.”

[6] = 3 wt%, long cylindrical shell form factor
[7] = 3 wt%, long cylindrical shell form factor, listed as lipoyl-KTTKS

Rg radius of gyration (monomer) ([2]; 3 wt% with 2.6 wt% TCEP, generalized Gaussian coil form factor): 6.3 Å
Rg radius of gyration (unaggregated peptide) ([2]; 3 wt%, generalized Gaussian coil form factor): 22.0 Å
L length [2, 6]: 987 Å
Ro outer radius (Gaussian polydispersity ΔR) [2, 6]: 25 Å
t shell thickness [2, 6]: 10 Å
Ro outer radius (Gaussian polydispersity ΔR) [2, 7]: 25.0 ± 25.0 Å
t shell thickness [2, 7]: 10.0 Å
Effect of addition of TCEP on self-assembled structures [5]: disrupts the fibril structures
Substance: lipoyl‐KTTKS [peptide amphiphile comprising a conjugate of lipoic acid to pentapeptide KTTKS]
Time to first signs of recovery of the scratch [1]: 12 h
Time to complete closure of the scratch ([1]; control closed only after 72 h): 48 h
Production of nitrites compared with cells incubated only in DMEM (without LPS) ([3]; n = 3): statistically significant increase
Production of nitrites compared with cells incubated only in DMEM (without LPS) ([3]; n = 3, listed as lipoyl‐KTKKS): increase
Increase in collagen synthesis compared with negative control ([4]; 0.038 wt% (0.5 mM) sample, enzyme immunoassay of PIP, single data point): 65%
Collagen synthesis relative to control and KTTKS [4]: superior to control and KTTKS itself
